This is an account of results in PubChem BioAssay AID1645848.

Usually solubility (kinetic) stands for solubility judged after dilution from a stock solution rather than from solid.

The conditions of this data set: buffer; pH 7.4; 6.0 h; 150.0 µM.

≈ marks a conversion by molar mass, not a printed value.

For the molecule `O=C(O)c1cn(C2CC2)c2cc(N3C[C@@H]4C[C@H]3CN4)c(F)cc2c1=O`, the solubility (kinetic) was > 51 µg/mL. For the molecule `Cc1cc(-c2nnc3n2CCCCC3)c(C)n1-c1ccc(Cl)c(Cl)c1`, the solubility (kinetic) turned out to be 31.6 µg/mL (≈ 84.1 µM). `Cc1ccc(Nc2nc(NCCO)c3ccccc3n2)cc1C.Cl` registered a kinetic solubility of 28.1 µg/mL. Regarding `Fc1ccc(Nc2nc(-c3ccncc3)cc3ccccc23)cc1F`, the kinetic solubility came out at 1.26 µg/mL (≈ 3.79 µM). Then `Nc1nc2c(s1)C(c1ccc(F)cc1F)CC(=O)N2` (configuration not stated), with 23.2 µg/mL (≈ 82.4 µM). The molecule `CCOC(=O)c1[nH]c(C)c(CCC(=O)N2CCN(c3cc(Cl)ccc3C)CC2)c1C` had a solubility (kinetic) of 2.74 µg/mL (≈ 6.35 µM). Regarding `COc1ccc(NC(=O)c2[nH]c(C)c(C(C)=O)c2C)cc1`, the kinetic solubility came out at 35.3 µg/mL (≈ 123 µM). Then `Cc1ccc(S(=O)(=O)Nc2cnccc2C(=O)Nc2ccc(S(=O)(=O)Nc3nccs3)cc2)cc1`, with > 63 µg/mL; and `Cc1cc(Cl)ccc1COc1ccnn1-c1cc(C(=O)O)ccn1`, with > 51 µg/mL.

Consider `Cc1ccc(S(=O)(=O)Nc2ccccc2N2CCCCC2)cc1`, for which the solubility (kinetic) is < 1 µg/mL. Next, `COCCNc1ncc(-c2cccc(O)c2)c2c1OCC2`: > 85 µg/mL; `COc1ccc2[nH]c(=O)c(-c3noc(-c4ccc(F)cc4)n3)cc2c1`: < 1 µg/mL.

Regarding `COc1ccc(N2Cc3cccc(C(=O)Nc4ccc(C(C)C)cc4)c3C2=O)cc1`, the solubility (kinetic) was < 1 µg/mL. Next, `COc1ccccc1-c1cc2c(ccn2C)c(C(=O)NCC2CCN(C)C(=O)C2)n1` (configuration not stated): > 90 µg/mL; `Cc1ccc(S(=O)(=O)Nc2cnccc2C(=O)Nc2nc(C(=O)O)cs2)cc1`: > 62 µg/mL.

As for `COc1ccc(-n2nc(C3CCN(C(=O)c4ccccc4)CC3)[nH]c2=O)cc1`, the solubility (kinetic) was > 56 µg/mL. As to `COC(=O)Nc1nc2ccc(Sc3ccccc3)cc2[nH]1`, the solubility (kinetic) is < 1 µg/mL.

For `CSc1ccc(-c2cnc(N3CCC(C(N)=O)CC3)s2)cc1`, the kinetic solubility is < 1 µg/mL. Next, `CC1(C)CCC(CN2CCN(c3ccc(C(=O)NS(=O)(=O)c4ccc(NCC5CCOCC5)c([N+](=O)[O-])c4)c(Oc4cnc5[nH]ccc5c4)c3)CC2)=C(c2ccc(Cl)cc2)C1`: < 1 µg/mL.

As for `O=C(O)Cc1ccc2oc(-c3ccc(NC(=O)/C=C/c4ccc(Br)cc4)c(F)c3)nc2c1`, the solubility (kinetic) is < 1 µg/mL.

Molecule `O=C1CCCC2=C1C1(CCS(=O)(=O)C1)N=C(Nc1nc3ccccc3o1)N2` (configuration not stated) gave a kinetic solubility of 1.02 µg/mL (≈ 2.65 µM). Molecule `COc1ccc(-c2cnc(N3CCC(C(N)=O)CC3)s2)cc1OC` displayed a solubility (kinetic) of 18.8 µg/mL (≈ 54 µM). As for `COc1cccc(NC(=O)c2cccc3c(=O)c4c([nH]c23)CCCC4)c1`, the solubility (kinetic) was < 1 µg/mL.

Turning to `Cc1ccc([S+](=O)([O-])n2cc(-c3ccc(-c4ccccc4)cc3)c3ccccc32)cc1`, the kinetic solubility is < 1 µg/mL. Next, `CC(C)CS(=O)(=O)c1oc(-c2ccc(F)cc2)nc1S(=O)(=O)c1ccccc1`: < 1 µg/mL.

In the case of `COc1ccc(NC(=O)c2cc(-c3ccc[nH]3)n[nH]2)cc1OC`, the solubility (kinetic) was > 31 µg/mL.

In the case of `COC(=O)CNC(=O)c1nc(-c2ccc(F)cc2)c2ccccn12`, the solubility (kinetic) was < 1 µg/mL. The molecule `Fc1cc(Nc2nc(-c3ccncc3)nc3ccccc23)ccc1N1CCNCC1` had a solubility (kinetic) of 4.02 µg/mL (≈ 10 µM). Next, `O=C1c2ccccc2C2=Nc3ccccc3SC(c3ccc(Cl)cc3)C12` (configuration not stated): < 1 µg/mL; `CC(C)(C)c1ccc(-c2ccc(=O)n(CC(=O)NCCc3ccccc3)n2)cc1`: < 1 µg/mL; `Cc1ccc(-n2nc3c(N4CCCC(C(=O)NCc5ccccc5C)C4)nnc(C)c3c2C)cc1` (configuration not stated): < 1 µg/mL. Next, `N#Cc1cccc(-c2csc(N3CCC(C(N)=O)CC3)n2)c1`: 10.7 µg/mL (≈ 34.3 µM); `CCCN1CNc2c(c(=O)[nH]c(=S)n2CCc2ccc(OC)c(OC)c2)C1`: > 58 µg/mL; `CN1CCN(c2ccc(Nc3nc(-c4ccncc4)nc4ccccc34)cc2F)CC1`: 18.7 µg/mL (≈ 45.1 µM).

As for `COc1ccccc1-c1[nH]nc2ncc(-c3ccc(C)cc3)nc12`, the kinetic solubility is < 1 µg/mL. Next, `O=C(NCCc1cnc[nH]1)c1ccc(-c2ncc3cnc(-c4cccc(F)c4)cn23)cc1`: 33.7 µg/mL (≈ 79.1 µM); `COc1ccc(-c2csc(N3CCC(C(N)=O)CC3)n2)cc1OC`: 17.5 µg/mL (≈ 50.5 µM). Then `O=C1CCCC2=C1C(c1[nH]ncc1Cl)N=C(Nc1nc3cc([S+](=O)([O-])N4CCOCC4)ccc3o1)N2` (configuration not stated), with > 78 µg/mL; and `CCOc1ccc(CCNC(=O)c2ccccc2)cc1OCC`, with 29.2 µg/mL (≈ 93.3 µM). Then `Cc1ccccc1OCC(O)CO` (configuration not stated), with > 27 µg/mL; and `Cc1cnc(-c2ccccc2C(F)F)nc1NCc1ccc(-n2ccnn2)cc1`, with < 1 µg/mL; and `O=c1c(-c2ccc(O)cc2)coc2cc(O)cc(O)c12`, with 27.3 µg/mL (≈ 101 µM). Molecule `COc1cc(-c2ccnc3c2c(C)nn3-c2ccc(C(F)(F)F)cc2)ccc1O` returned a solubility (kinetic) of 28.1 µg/mL (≈ 70.4 µM). Then `CCN1CCc2c(sc(NC(=O)Nc3ccc(Cl)c(Cl)c3)c2C(N)=O)C1`, with < 1 µg/mL; and `CCCN1CNc2c(c(=O)[nH]c(=S)n2Cc2ccc(OC)c(OC)c2)C1`, with > 56 µg/mL.

Regarding `CN(C)c1cccc(-c2ncc(F)c(N3CCC(C(N)=O)CC3)n2)c1`, the solubility (kinetic) is > 51 µg/mL. Next, `Clc1ccc(C2(c3ccc(-c4cn[nH]c4)cc3)CCNCC2)cc1`: > 50 µg/mL; `COc1ccc2[nH]c(=O)c(-c3noc(-c4ccccc4)n3)cc2c1`: < 1 µg/mL. Then `CC1=C(C(=O)Nc2ccccc2C)C(c2ccccc2Br)N=C(Nc2nc3ccccc3o2)N1` (configuration not stated), with < 1 µg/mL; and `CN(C)CCOC1=Cc2ccccc2Sc2ccc(Cl)cc21`, with 26 µg/mL (≈ 78.4 µM); and `Cc1ccc(-n2nc3c(=O)n(CCCC(=O)NC(C)c4ccccc4)nc(C)c3c2C)cc1` (configuration not stated), with 4.59 µg/mL (≈ 10.4 µM).

Regarding `CNC(=O)c1ccc(C)c(-n2c(C)cc(OCc3ccc(F)cc3F)c(Br)c2=O)c1`, the kinetic solubility is > 100 µg/mL. Then `NC(=O)c1sc2nc3c(c(-c4cccs4)c2c1N)CCCC3`, with 0.293 µg/mL (≈ 0.889 µM); and `NC(=O)C1CCN(c2nc(-c3ccc4c(c3)OCCO4)cs2)CC1`, with 34.6 µg/mL (≈ 100 µM). `O=C(O)c1ccc(N2C(=O)/C(=C/c3ccc(-c4ccc([N+](=O)[O-])cc4)o3)C=C2c2ccccc2)cc1`: the solubility (kinetic) was found to be 31.4 µg/mL (≈ 65.6 µM). Then `CC1CCCCN1c1ncnc(N)c1[N+](=O)[O-]` (configuration not stated), with > 35 µg/mL; and `CC1=C(C(=O)Nc2nncs2)C(c2nn(C)cc2Cl)N=C(Nc2nc3ccccc3o2)N1` (configuration not stated), with 16.3 µg/mL (≈ 34.6 µM). Next, `COc1ccc(NC(=O)c2[nH]c(C)c(C(C)=O)c2C)cc1S(=O)(=O)N1CCCCCC1`: 3.11 µg/mL (≈ 6.94 µM); `COc1cc(N2CCC(N3CCN(C)CC3)CC2)ccc1Nc1ncc(Cl)c(Nc2ccccc2P(C)(C)=O)n1`: > 86 µg/mL; `O=C1Nc2ccccc2/C1=C\c1cc(Br)c(O)c(Br)c1`: > 58 µg/mL. `NC(=O)C1CCN(c2nc(-c3ccccc3)cs2)CC1`: the kinetic solubility was > 42 µg/mL. Next, `N#Cc1ccc(NS(=O)(=O)c2ccc(NC(=O)Cc3ccc(Cl)c(Cl)c3)cc2)cc1`: < 1 µg/mL; `Cn1nnnc1Sc1ncnc2scc(-c3ccccc3F)c12`: 1.2 µg/mL (≈ 3.48 µM). Then `CC1=C(C(=O)NC2CCCC2)C(c2nn(C)cc2Cl)N=C(Nc2nc3ccccc3o2)N1` (configuration not stated), with 10 µg/mL (≈ 22 µM); and `O=[S+]([O-])(Nc1nccs1)c1ccc(NCc2cc(Cl)cc(Br)c2O)cc1`, with < 1 µg/mL. Next, `Cc1c([C@@H](C)C2NC[C@H](C)C[C@@H]2O)ccc2c1C[C@@H]1[C@H]2CC=C2C[C@@H](O)CC[C@@]21C` (some centres not stated): 40.9 µg/mL (≈ 99.7 µM); `N#Cc1cccc(-c2nccc(-n3ccnc3)n2)c1`: 7.26 µg/mL (≈ 29.4 µM); `CN(C)c1ccc(CN2CCNc3cc(Nc4ccccc4)ncc3C2)cc1`: > 83 µg/mL. Consider `Nc1c(C(=O)Nc2ccc(F)cc2)sc2nc(-c3cccs3)cc(C(F)(F)F)c12`, for which the kinetic solubility was < 1 µg/mL. On to `COc1ccc(-c2ccc3nc(-c4ccccc4C)oc3c2)c(OC)c1OC`, for which the kinetic solubility is < 1 µg/mL. Next, `Cc1noc(C)c1Cc1ccc(C(=O)N2CCc3c(nc4cc(-c5ccccc5)[nH]n4c3=O)C2)o1`: 4.77 µg/mL (≈ 10.2 µM); `CC(C)c1ccccc1-c1nc2c(c(NCc3ccc(-c4cccnc4)cc3)n1)CNC2`: 40.9 µg/mL (≈ 97 µM); `CCc1ccc2oc(NC3=NC(c4[nH]ncc4Cl)C4=C(CCCC4=O)N3)nc2c1` (configuration not stated): < 1 µg/mL.

Molecule `CN(C)[C@@H]1CCN(c2cccc(Nc3nn4c(=O)c5ccccc5nc4s3)c2)C1` gave a solubility (kinetic) of 18.1 µg/mL (≈ 44.4 µM). Molecule `CC1CCN(C(=O)c2ccc(-c3ccc(N4CCSCC4)nc3)cc2)CC1` gave a solubility (kinetic) of 2.44 µg/mL (≈ 6.4 µM). Molecule `Cc1cn(CCN2CCN(c3ccccc3-c3cc(C#N)cc(C(=O)NCCCN4CCCC4)c3)CC2)c2ccccc12` registered a kinetic solubility of 14.6 µg/mL (≈ 25.4 µM). With `Cc1ccc(S(=O)(=O)Nc2ccc(C(=O)Nc3nc(-c4ccccc4)cs3)cc2Cl)cc1`, the solubility (kinetic) is < 1 µg/mL. Next, `CCc1ccc(NC(=O)CSC2=Nc3ccccc3C3=NC(CC(=O)NCc4ccc5c(c4)OCO5)C(=O)N23)cc1` (configuration not stated): 2.36 µg/mL (≈ 4.15 µM). As to `Cc1ccc(Nc2nc(C)c(NC(=O)c3ccc(C)cc3)c(Nc3ccc(C)cc3)n2)cc1`, the solubility (kinetic) was < 1 µg/mL. As for `O=C(Nc1ncnc2sc3c(c12)CCC3)c1ccco1`, the solubility (kinetic) came to 11.5 µg/mL (≈ 40.4 µM). Next, `COc1ccc(C2c3c(oc4ccc(C)cc4c3=O)C(=O)N2CCCN2CCOCC2)cc1OC` (configuration not stated): > 71 µg/mL; `COc1ccc(OC)c(-c2cc(C(=O)N3CCN(c4ncccn4)CC3)c3ccccc3n2)c1`: 24.5 µg/mL (≈ 53.7 µM). Then `Fc1ccc(-c2nc(-c3ccncc3)nc3ccccc23)cc1F`, with < 1 µg/mL; and `CCN(CC)CCOc1ccc2c(=O)c3ccc(Cl)cc3n(CCN(CC)CC)c2c1`, with > 66 µg/mL; and `Cc1ccc(S(=O)(=O)Nc2ccccc2C(=O)Nc2cccc(-c3ccccc3)c2)cc1`, with < 1 µg/mL.

Turning to `Cn1c2ccccc2c2c3c(c4c5ccccc5n(CCC#N)c4c21)CNC3=O`, the solubility (kinetic) is < 1 µg/mL. Regarding `CN[C@@H](C)C(=O)N[C@@H]1C(=O)N(Cc2c(C)ccc3ccccc23)c2ccc(C#N)cc2N(C(C)=O)[C@H]1C`, the kinetic solubility is > 73 µg/mL.
